In ChEMBL document CHEMBL1201862, “PubChem BioAssay data set” (2004):
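Exposure lasted 48 hours, with cells grown in 96-well plates and compounds tested at five concentrations. At the GI50, growth is halved.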 Active and inactive are the calls of the source. Cut-off read from the data, not from the text of the source: active = GI50 up to about 1.1 µM and inactive = higher.

Experiments:
Experiment in all cases: growth of human tumour cells (NCI), 48 h
[1] = system: PC-3
[2] = system: KM12
[3] = system: DU-145
[4] = system: OVCAR-5
[5] = system: HCC 2998
[6] = system: 786-0
[7] = system: NCI-H460
[8] = system: SF-295
[9] = system: HT-29
[10] = system: HOP-62
[11] = system: MOLT-4
[12] = system: CAKI-1
[13] = system: NCI/ADR-RES
[14] = system: ACHN
[15] = system: TK-10
[16] = system: NCI-H23
[17] = system: T47D
[18] = system: OVCAR-3
[19] = system: UACC-257
[20] = system: Malme-3M

Measured: GI50

CCc1nc(N)nc(N)c1-c1ccc2nnn(O)c2c1
inactive: [1] > 100 µM | [2] > 100 µM | [3] > 100 µM | [4] > 100 µM | [5] > 100 µM | [6] > 100 µM | [7] > 72.8 µM | [8] > 100 µM | [9] > 89.1 µM | [10] > 100 µM | [11] > 100 µM | [12] > 100 µM | [13] > 100 µM | [14] > 100 µM | [15] > 100 µM | [16] > 100 µM | [17] > 100 µM | [18] > 100 µM | [19] > 100 µM

CN1C(=O)c2ccc3ccccc3c2C1=O
inactive: [1] > 100 µM | [2] > 100 µM | [3] > 100 µM | [4] > 100 µM | [5] > 100 µM | [6] > 100 µM | [7] > 100 µM | [8] > 100 µM | [9] > 100 µM | [10] > 100 µM | [11] > 100 µM | [12] > 100 µM | [13] > 100 µM | [14] > 100 µM | [15] > 100 µM | [16] > 100 µM | [17] 63.5 µM | [18] > 100 µM | [19] > 100 µM

CN1CN(c2ccccc2)C2(CCN(CCc3csc4ccccc34)CC2)C1=O
inactive: [1] 12 µM | [2] 12.6 µM | [3] 18.7 µM | [20] 15 µM | [4] 11.9 µM | [5] 7.21 µM | [6] 14.5 µM | [9] 4.04 µM | [10] 12.2 µM | [11] 10.3 µM | [12] 11.2 µM | [13] 13.8 µM | [14] > 10 µM | [15] 14 µM | [16] 17.4 µM | [17] 18.3 µM | [18] 12.1 µM | [19] 14.4 µM

COc1ccc(CCCNC(=O)Cc2cc(OC)c(OC)cc2CO)cc1OC
inactive: [1] > 100 µM | [2] > 100 µM | [3] > 100 µM | [20] > 100 µM | [4] > 100 µM | [5] > 100 µM | [6] > 100 µM | [7] > 100 µM | [9] > 100 µM | [10] > 100 µM | [11] > 100 µM | [12] > 100 µM | [13] > 100 µM | [14] > 100 µM | [15] > 100 µM | [16] 75 µM | [17] 23.3 µM | [18] > 100 µM | [19] > 100 µM

N#CC1C(=O)N(c2ccccc2)NC12OC(=O)c1ccncc12 (centres undefined)
inactive: [1] > 20 µM | [3] > 20 µM | [20] > 20 µM | [4] > 20 µM | [5] > 20 µM | [6] > 20 µM | [7] > 20 µM | [8] > 20 µM | [9] > 20 µM | [11] > 20 µM | [12] > 20 µM | [13] > 20 µM | [14] > 20 µM | [16] > 20 µM | [17] > 20 µM | [18] > 20 µM | [19] > 20 µM

O=c1[nH]c2cc(C(F)(F)F)ccc2nc1Cc1ccccc1
inactive: [1] > 100 µM | [2] > 100 µM | [3] > 100 µM | [5] > 100 µM | [6] 36.6 µM | [7] > 100 µM | [8] 40.6 µM | [9] > 100 µM | [10] 28.9 µM | [11] > 100 µM | [12] 60.4 µM | [13] 67 µM | [14] 52.6 µM | [15] > 100 µM | [16] 23.4 µM | [17] 38.5 µM | [19] > 100 µM

C[N+]1(C)C(c2ccccc2)C(=O)O[B@-]1(F)c1ccccc1 (some centres undefined)
inactive: [1] > 100 µM | [3] > 100 µM | [20] > 100 µM | [4] > 100 µM | [5] > 100 µM | [6] > 100 µM | [7] > 100 µM | [8] > 100 µM | [9] > 100 µM | [10] > 100 µM | [11] > 100 µM | [13] > 100 µM | [14] > 100 µM | [15] > 100 µM | [16] > 100 µM | [17] > 100 µM | [18] > 100 µM | [19] > 100 µM

CN(C)CC[N+](C)(C)[BH2-]C(O)O
inactive: [1] > 100 µM | [2] > 100 µM | [3] > 100 µM | [4] > 100 µM | [5] > 100 µM | [6] > 100 µM | [7] > 100 µM | [8] > 100 µM | [9] > 100 µM | [10] > 100 µM | [11] > 100 µM | [12] > 100 µM | [13] > 100 µM | [14] > 100 µM | [15] > 100 µM | [16] > 100 µM | [17] > 100 µM | [18] > 100 µM | [19] > 100 µM

Cc1nnc(N)nc1/C=C\c1ccc(N(C)C)cc1
inactive: [1] 30.7 µM | [2] 12.3 µM | [3] > 66.2 µM | [20] 29.2 µM | [4] > 86.3 µM | [5] 3.78 µM | [6] > 26.7 µM | [7] 9.66 µM | [8] > 41.2 µM | [9] 8.83 µM | [10] 38.5 µM | [11] 17.6 µM | [13] 12.4 µM | [14] 15 µM | [15] > 37.6 µM | [16] 7.01 µM | [17] > 24.6 µM | [19] 22.5 µM

CCCCC/C(C=O)=C\c1ccccc1
inactive: [1] > 100 µM | [2] > 100 µM | [3] > 100 µM | [5] > 100 µM | [6] > 100 µM | [7] > 100 µM | [8] > 100 µM | [9] > 100 µM | [10] > 100 µM | [11] 65.8 µM | [12] > 100 µM | [13] > 100 µM | [14] > 100 µM | [15] > 100 µM | [16] > 100 µM | [17] > 100 µM | [19] > 100 µM

C=CCc1cccc2cc(C(=O)NCc3ccccc3)c(=N)oc12
inactive: [1] 18.6 µM | [2] 34.4 µM | [3] 37.1 µM | [20] 19.4 µM | [4] 54 µM | [5] 25.1 µM | [6] 29.1 µM | [7] 28.5 µM | [9] 34.4 µM | [10] 38.5 µM | [11] > 100 µM | [12] 37 µM | [13] 34.2 µM | [14] 19.9 µM | [16] 31.9 µM | [17] 24.5 µM | [18] 20.7 µM | [19] 89.3 µM
